Read-outs that look alike come from different tables or passages of the source. A value given as a limit tells only on which side of the number the result lay.

Consider 6 molecules from paper PMC5743546 (Biochemistry, 2017).

Data set [1] addresses T1, CYP2J2 (Homo sapiens, UniProt P51589).
T1 sequence (P51589 1-502): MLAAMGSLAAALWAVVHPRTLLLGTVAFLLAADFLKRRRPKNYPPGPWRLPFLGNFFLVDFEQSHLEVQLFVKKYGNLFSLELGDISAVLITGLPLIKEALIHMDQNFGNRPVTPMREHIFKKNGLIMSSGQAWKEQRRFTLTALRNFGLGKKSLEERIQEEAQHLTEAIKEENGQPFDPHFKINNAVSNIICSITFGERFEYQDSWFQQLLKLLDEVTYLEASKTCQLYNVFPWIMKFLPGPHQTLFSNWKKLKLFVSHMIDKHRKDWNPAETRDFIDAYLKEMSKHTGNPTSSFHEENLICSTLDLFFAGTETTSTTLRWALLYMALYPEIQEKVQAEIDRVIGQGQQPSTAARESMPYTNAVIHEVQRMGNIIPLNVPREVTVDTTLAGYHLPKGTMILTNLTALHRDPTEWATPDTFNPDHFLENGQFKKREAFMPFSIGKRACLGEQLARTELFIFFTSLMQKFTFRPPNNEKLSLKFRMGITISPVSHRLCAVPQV
As to the kind of experiment: biochemical. The settings on record: for y0 (residual rate of AA epoxidation at maximum inhibition): fit to eq S1.

Data set [2] deals with T1, CYP2J2.
The target in data set [3] is T1, CYP2J2. It is filed as binding.
Data set [4] addresses T1, CYP2J2. The source holds these as a separate data set.
Data set [5] has as its target T1, CYP2J2. Briefly: CYP2J2-mediated ebastine. It is filed as biochemical.
The target in data set [6] is T1, CYP2J2. As to the kind of experiment: DOX metabolism kinetics by CPR and CYP2J2. To be noted: none detected by LC-MS/MS analysis.
The conditions of data set [7]: cited from earlier work.
Substrate in data set [8]: COc1cccc2c1C(=O)c1c(O)c3c(c(O)c1C2=O)C[C@@](O)(C(=O)CO)C[C@@H]3O[C@H]1C[C@H](N)[C@H](O)[C@H](C)O1
Briefly: purified protein, by the assay type. To be noted: other: CPR with CYP2J2; hyperbolic curve.

As to `COc1cccc2c1C(=O)c1c(O)c3c(c(O)c1C2=O)CC(O)(C(=O)CO)CC3` (stereo not drawn) [7-de-aDOX, 7-deoxydoxorubicin aglycone], in data set [1], inhibition was half-maximal at 10.2 ± 0.1 µM (IC50); the Ki – broadly, the dissociation constant of the complex between target and ligand, obtained from inhibition or displacement – turned out to be 5.78 ± 0.03 µM. The “metabolism by CYP2J2 to form new products (in words)” value in data set [2] is “does not metabolize”. In data set [3], binding was put at a Kd of 13.1 ± 1.1 µM. Also, the “NADPH oxidation on addition of CYP2J2 (in words)” value in data set [4] was “does not increase”.
For the molecule `COc1cccc2c1C(=O)c1c(O)c3c(c(O)c1C2=O)C[C@@](O)(C(=O)CO)C[C@@H]3O[C@H]1C[C@H](N)[C@H](O)[C@H](C)O1` [DOX, doxorubicin], in data set [5], the midpoint of inhibition, the IC50, lay at 17.9 µM and the Ki came out at 8.97 ± 0.01 µM. For the same molecule, the “y0 (residual rate of EBS metabolism)” value in data set [5] (20 μM EBS, fit to eq S1) was found to be 5.87 ± 2.84. In data set [1], half-maximal inhibition (IC50) was put at 5.48 ± 0.04 µM and the inhibitory constant (Ki) came out at 3.11 ± 0.02 µM. Moreover, in data set [1] (100 μM AA), the “enzyme activity retained in the presence of saturating amounts” value turned out to be 23% and the “y0 (residual rate of AA epoxidation at maximum inhibition)” value is 19.8 ± 3.8 pmol (min)^−1 (nmolCYP2J2)^−1. Also, in data set [6], the “metabolism by CYP2J2 to form new products (in words)” value is recorded as “does not metabolize”. In data set [3], the Kd (commonly the concentration at which binding is half-saturated) amounted to 5.32 ± 0.89 µM. The “r0 (intrinsic polarization value)” value in data set [3] (1 μM DOX or 7-de-aDOX, 37°C, with 100 μM AA or 60 μM EBS where indicated) is on record as 0.083 ± 0.007. For the same molecule, the “r1 (maximum polarization value)” value in data set [3] (1 μM DOX or 7-de-aDOX, one-site fit) amounted to 0.219 ± 0.010. Further, in data set [7], the “plasma levels upon immediate exposure” value is 1 to 10 µM and the toxic cumulative dose is ~ 50 μM.
Take `COc1cccc2c1C(=N)c1c(O)c3c(c(O)c1C2=O)C[C@@](O)(C(C)=O)C[C@@H]3O[C@H]1C[C@H](N)[C@H](O)[C@H](C)O1` [5-IDN, 5-iminodaunorubicin]: in data set [1], the concentration for half-maximal inhibition (IC50) (in general, the point on the concentration scale where inhibition reaches its midpoint) worked out at 27.4 ± 0.03 µM and the Ki was found to be 15.6 ± 0.02 µM.
In data set [1], `COc1cccc2c1C(=O)c1c(O)c3c(c(O)c1C2=O)C[C@@](O)(/C(C)=N/NC(=O)c1ccccc1)C[C@@H]3O[C@H]1C[C@H](N)[C@H](O)[C@H](C)O1` [ZRN, zorubicin] registered a concentration for half-maximal inhibition (IC50) of 6.46 ± 0.03 µM and an inhibitory constant (Ki) of 3.67 ± 0.02 µM. In addition, the “change in the regioselectivity of AA epoxidation (in words)” value in data set [1] (100 μM AA, 0–50 μM anthracycline) is given as “not a significant change”. Further, the “y0 (residual rate of AA epoxidation at maximum inhibition)” value in data set [1] (100 μM AA) is recorded as 18.7 ± 3.5 pmol (min)^−1 (nmolCYP2J2)^−1.
In the case of `CCCCC/C=C\C/C=C\C/C=C\C/C=C\CCCC(=O)O` [AA, arachidonic acid], the Ki in data set [3] was > 200 µM. In data set [3] (100 μM AA, 1 μM DOX), the “inhibition of DOX binding to CYP2J2 (in words)” value is listed as “weakly inhibits”.

B1: CYP2J2 (Homo sapiens) (protein)
chain: MLAAMGSLAAALWAVVHPRTLLLGTVAFLLAADFLKRRRPKNYPPGPWRLPFLGNFFLVDFEQSHLEVQLFVKKYGNLFSLELGDISAVLITGLPLIKEALIHMDQNFGNRPVTPMREHIFKKNGLIMSSGQAWKEQRRFTLTALRNFGLGKKSLEERIQEEAQHLTEAIKEENGQPFDPHFKINNAVSNIICSITFGERFEYQDSWFQQLLKLLDEVTYLEASKTCQLYNVFPWIMKFLPGPHQTLFSNWKKLKLFVSHMIDKHRKDWNPAETRDFIDAYLKEMSKHTGNPTSSFHEENLICSTLDLFFAGTETTSTTLRWALLYMALYPEIQEKVQAEIDRVIGQGQQPSTAARESMPYTNAVIHEVQRMGNIIPLNVPREVTVDTTLAGYHLPKGTMILTNLTALHRDPTEWATPDTFNPDHFLENGQFKKREAFMPFSIGKRACLGEQLARTELFIFFTSLMQKFTFRPPNNEKLSLKFRMGITISPVSHRLCAVPQV
Regarding B1, the Michaelis constant (Km) (usually the substrate concentration at which the rate is half of its maximum) in data set [8] was 10.4 ± 1.6 µM.
